Assay results reported in patent US10188754B2, “Compositions and methods for chemical exchange saturation transfer (CEST) based magnetic resonance imaging (MRI)” (THE JOHNS HOPKINS UNIVERSITY, priority 2013, dated 2019).

Experiment: not given
Assay type: physicochemical
Conditions: Table 2; 10 mM, pH 7.3-7.4, tsat = 3 sec, ω1 = 3.6 μT, 37° C.

SMILES	Signal (ppm)
O=C(O)c1cc([N+](=O)[O-])ccc1O [Compound 14, 5-nitrosalicylic acid]	10.3 ppm
O=C(O)c1cc([N+](=O)[O-])cc([N+](=O)[O-])c1O [Compound 15, 3,5-Dinitrosalicylic acid]	None
O=C(O)c1ccc(O)cc1O [Compound 16]	9.5 ppm
Nc1ccc(C(=O)O)c(O)c1 [Compound 17]	9.5 ppm
O=C(O)c1ccc(C(=O)O)c(O)c1 [Compound 18]	9.3 ppm
O=C(O)c1ccc([N+](=O)[O-])cc1O [Compound 19, 2-hydroxy-4-nitrobenzoic acid]	9.5 ppm

Same assay, conditions: Table 3; 10 mM, pH 7.3-7.4, tsat = 3 sec, ω1 = 3.6 μT, 37° C.

SMILES	Signal (ppm)
O=C(O)c1c(O)ccc2ccccc12 [Compound 20, 2-hydroxy-l-naphthoic acid]	9.5 ppm
COc1cccc(O)c1C(=O)O [Compound 21, 6-methoxysalicylic acid]	9.0 ppm
O=C(O)c1c(O)cccc1O [Compound 22, 2,6-dihydroxybenzoic acid]	9.3 ppm

Same assay, conditions: Table 4; 10 mM, pH 7.3-7.4, tsat = 3 sec, ω1 = 3.6 μT, 37° C.

SMILES	Signal (ppm)
Cc1cccc(C(=O)O)c1O [Compound 23, 3-Methylsalicylic acid]	9.5 ppm
CC(C)(C)c1cc(C(=O)O)c(O)c(C(C)(C)C)c1 [Compound 24, 3,5-di-tert-butylsalicylic acid]	9.3 ppm
O=C(O)c1cccc(F)c1O [Compound 25]	9.5 ppm
O=C(O)c1cc(Cl)cc(Cl)c1O [Compound 26]	10.3 ppm
O=C(O)c1cc(Br)cc(Br)c1O [Compound 27, 3,5-Dibromosalicylic acid]	10.5 ppm
O=C(O)c1cc(I)cc(I)c1O [Compound 28]	10.8 ppm
O=C(O)c1ccc2ccccc2c1O [Compound 29, 1-Hydroxy-2-naphthoic acid]	10.5 ppm
O=C(O)c1ccc2cccnc2c1O [Compound 30, 8-hydroxy-7-quinolinecarboxylic acid]	10.3 ppm
O=C(O)c1cccc(O)c1O [Compound 31, 2,3-dihydroxybenzoic acid]	9.0 ppm
COc1cccc(C(=O)O)c1O [Compound 32, 3-methoxysalicylic acid]	9.3 ppm
O=C(O)c1cccc(C(=O)O)c1O [Compound 35, 2-hydroxyisophthalic acid]	9.5 ppm
O=C(O)c1cccc([N+](=O)[O-])c1O [Compound 36, 3-nitrosalicylic acid]	12.0 ppm

Experiment: not given
Conditions: Table 2; 10 mM, pH 7.3-7.4, 37° C.

SMILES	kex
O=C(O)c1ccc(O)cc1O [Compound 16]	460 s⁻¹
Nc1ccc(C(=O)O)c(O)c1 [Compound 17]	384 s⁻¹
O=C(O)c1ccc(C(=O)O)c(O)c1 [Compound 18]	420 s⁻¹
O=C(O)c1ccc([N+](=O)[O-])cc1O [Compound 19, 2-hydroxy-4-nitrobenzoic acid]	1500 s⁻¹

Same assay, conditions: Table 3; 10 mM, pH 7.3-7.4, 37° C.

SMILES	kex
O=C(O)c1c(O)ccc2ccccc12 [Compound 20, 2-hydroxy-l-naphthoic acid]	4400 s⁻¹
COc1cccc(O)c1C(=O)O [Compound 21, 6-methoxysalicylic acid]	4900 s⁻¹
O=C(O)c1c(O)cccc1O [Compound 22, 2,6-dihydroxybenzoic acid]	30 s⁻¹

Same assay, conditions: Table 4; 10 mM, pH 7.3-7.4, 37° C.

SMILES	kex
Cc1cccc(C(=O)O)c1O [Compound 23, 3-Methylsalicylic acid]	250 s⁻¹
CC(C)(C)c1cc(C(=O)O)c(O)c(C(C)(C)C)c1 [Compound 24, 3,5-di-tert-butylsalicylic acid]	22 s⁻¹
O=C(O)c1cccc(F)c1O [Compound 25]	750 s⁻¹
O=C(O)c1cc(Cl)cc(Cl)c1O [Compound 26]	1070 s⁻¹
O=C(O)c1cc(Br)cc(Br)c1O [Compound 27, 3,5-Dibromosalicylic acid]	580 s⁻¹
O=C(O)c1cc(I)cc(I)c1O [Compound 28]	310 s⁻¹
O=C(O)c1ccc2ccccc2c1O [Compound 29, 1-Hydroxy-2-naphthoic acid]	220 s⁻¹
COc1cccc(C(=O)O)c1O [Compound 32, 3-methoxysalicylic acid]	480 s⁻¹

Experiment: Screening of beta-hydroxy carboxylate analogs for CEST contrast (Table 4A)
Conditions: Concentration 5 mM

SMILES	Signal (ppm)
Cc1ccc(Cl)c(Nc2ccccc2C(=O)O)c1Cl [Entry 51]	4.8 ppm
Cc1cccc(Nc2ccccc2C(=O)O)c1C [Entry 52]	None
Cc1cccc(Nc2ccccc2C(=O)O)c1Cl [Entry 53]	None

Same assay, conditions: Concentration 10 mM

SMILES	Signal (ppm)	kex
O=C(O)c1ccccc1O [Entry 1]	9.3 ppm	400 s⁻¹
O=C(O)CNC(=O)c1ccccc1O [Entry 3]	None	–
COC(=O)c1ccccc1O [Entry 4]	None	–
COC(=O)c1cc([N+](=O)[O-])ccc1O [Entry 5]	None	–
O=[N+]([O-])c1ccccc1O [Entry 6]	None	–
COC(=O)c1ccc(O)c([N+](=O)[O-])c1 [Entry 7]	None	–
[O-][n+]1cccc2cccc(O)c21 [Entry 8]	9.5 ppm	32 s⁻¹
O=Cc1cc(C(=O)O)ccc1O [Entry 9]	None	–
O/N=C/c1ccccc1O [Entry 10]	None	–
O=C(O)c1ccc(O)c(/C=N/CC/N=C/c2cc(C(=O)O)ccc2O)c1 [Entry 11]	7.8 ppm	15400 s⁻¹
Oc1ccccc1-c1nnn[nH]1 [Entry 13]	None	–
NC(Cc1cc(I)c(O)c(I)c1)C(=O)O (stereo not drawn) [Entry 14]	None	–
O=C(O)c1cc(O)ccc1O [Entry 15]	8.5 ppm	400 s⁻¹
Nc1ccc(O)c(C(=O)O)c1 [Entry 16]	8.5 ppm	380 s⁻¹
O=C(O)c1cc(Cl)ccc1O [Entry 17]	9.0 ppm	290 s⁻¹
O=C(O)c1cc([N+](=O)[O-])ccc1O [Entry 19]	10.3 ppm	5660 s⁻¹
O=C(O)c1cc([N+](=O)[O-])cc([N+](=O)[O-])c1O [Entry 20]	None	–
O=C(O)c1ccc(O)cc1O [Entry 21]	9.5 ppm	462 s⁻¹
Nc1ccc(C(=O)O)c(O)c1 [Entry 22]	9.5 ppm	384 s⁻¹
O=C(O)c1ccc(C(=O)O)c(O)c1 [Entry 23]	9.3 ppm	420 s⁻¹
O=C(O)c1ccc([N+](=O)[O-])cc1O [Entry 24]	9.5 ppm	1500 s⁻¹
O=C(O)c1c(O)ccc2ccccc12 [Entry 25]	9.5 ppm	4400 s⁻¹
COc1cccc(O)c1C(=O)O [Entry 26]	9.0 ppm	4900 s⁻¹
O=C(O)c1c(O)cccc1O [Entry 27]	9.3 ppm	30 s⁻¹

SMILES	Signal (ppm)	kex
Cc1cccc(C(=O)O)c1O [Entry 28]	9.5 ppm	250 s⁻¹
O=C(O)c1cccc(F)c1O [Entry 30]	9.5 ppm	750 s⁻¹
O=C(O)c1cc(Cl)cc(Cl)c1O [Entry 31]	10.3 ppm	1070 s⁻¹
O=C(O)c1cc(Br)cc(Br)c1O [Entry 32]	10.5 ppm	580 s⁻¹
O=C(O)c1cc(I)cc(I)c1O [Entry 33]	10.8 ppm	310 s⁻¹
O=C(O)c1ccc2ccccc2c1O [Entry 34]	10.5 ppm	220 s⁻¹
O=C(O)c1ccc2cccnc2c1O [Entry 35]	10.3 ppm	1530 s⁻¹
O=C(O)c1cccc(O)c1O [Entry 36]	9.0 ppm	2000 s⁻¹
COc1cccc(C(=O)O)c1O [Entry 37]	9.3 ppm	480 s⁻¹
Nc1cccc(C(=O)O)c1O [Entry 38]	9.0 ppm	410 s⁻¹
O=Cc1cccc(C(=O)O)c1O [Entry 39]	10.5 ppm	510 s⁻¹
O=C(O)c1cccc(C(=O)O)c1O [Entry 40]	9.5 ppm	6680 s⁻¹
O=C(O)c1cccc([N+](=O)[O-])c1O [Entry 41]	12.0 ppm	1430 s⁻¹
O=C(O)c1cc(O)c(C(=O)O)cc1O [Entry 42]	8.3 ppm	990 s⁻¹
O=C(O)c1cc(C(=O)O)c(O)cc1O [Entry 43]	9.8 ppm	460 s⁻¹
O=C(O)c1cc2ccccc2c(Cc2c(O)c(C(=O)O)cc3ccccc23)c1O [Entry 44]	9.5 ppm	130 s⁻¹
O=C(O)c1ccccc1Nc1ccccc1 [Entry 49]	4.8 ppm	674 s⁻¹
O=C(O)c1ccccc1Nc1cccc(C(F)(F)F)c1 [Entry 50]	4.8 ppm	1000 s⁻¹
O=C(O)c1cccnc1Nc1cccc(C(F)(F)F)c1 [Entry 54]	None	–
O=C(O)c1ccccc1NC(=O)C(F)(F)F [Entry 57]	9.3 ppm	190 s⁻¹
CS(=O)(=O)Nc1ccccc1C(=O)O [Entry 58]	7.3 ppm	470 s⁻¹
CS(=O)(=O)Nc1ccc(N)cc1C(=O)O [Entry 61]	6.3 ppm	550 s⁻¹
Cc1ccc(S(=O)(=O)Nc2ccccc2C(=O)O)cc1 [Entry 62]	7.8 ppm	440 s⁻¹

Same assay, conditions: Concentration 20 mM

SMILES	Signal (ppm)	kex
CC(C)(C)c1cc(C(=O)O)c(O)c(C(C)(C)C)c1 [Entry 29]	9.3 ppm	22 s⁻¹

Same assay, conditions: Concentration 25 mM

SMILES	Signal (ppm)	kex
O=C(O)c1ccc(-c2ccc(F)cc2F)cc1O [Entry 45]	9.3 ppm	650 s⁻¹
O=C(O)c1cc(/N=N\c2ccc(S(=O)(=O)Nc3ccccn3)cc2)ccc1O [Entry 46]	9.6 ppm	1000 s⁻¹
Nc1ccccc1C(=O)O [Entry 47]	None	–
CNc1ccccc1C(=O)O [Entry 48]	None	–
CC(=O)Nc1ccccc1C(=O)O [Entry 55]	None	–
CC(C)(C)OC(=O)Nc1ccccc1C(=O)O [Entry 56]	None	–
CS(=O)(=O)Nc1ccc(Cl)cc1C(=O)O [Entry 59]	7.3 ppm	1000 s⁻¹
Cc1ccc(NS(C)(=O)=O)c(C(=O)O)c1 [Entry 60]	7.0 ppm	500 s⁻¹
O=C(O)c1ccccc1NS(=O)(=O)C(F)(F)F [Entry 63]	None	–
O=C(O)c1ccccc1N/N=C\c1ccccc1 [Entry 64]	None	–
